Assay type in all cases: physicochemical
A short description of series [1]: XRPD analysis of remaining solids from aqueous solubility assessments. The following applies: solids recovered from mother liquor of aqueous solubility assessment. The text has this:
Compound I ethylenediamine A+B disproportionated, as peaks similar to those observed for Compound I free acid Material C were observed.

Series [2] in a line: Deliquescence of salts/co-crystals during exposure to 75% RH. The following applies: ambient temperature, 3 day exposure; for Observation (deliquescence): visual. On the procedure: The salts identified from the salt/co-crystal screen of Compound I (see section 4 above) were assessed visually for deliquescence during exposure to 75% RH at ambient temperature (Table 5). […] The materials from these experiments were recovered and re-analyzed by XRPD to determine if changes in solid form occurred.

Series [3] is described as follows: Approximate aqueous solubility of salts/co-crystals (visual, solvent addition method). The following applies: water; for solubility: estimated visually, solvent addition method. On the procedure: (§1) A weighed sample was treated with aliquots of the test solvent at room temperature. The mixture was sonicated between additions to facilitate dissolution. Complete dissolution of the test material was determined by visual inspection. Solubility was estimated based on the total solvent used to provide complete dissolution. Some samples were then heated and observed visually for complete dissolution. The actual solubility may be greater than the value calculated because of the use of solvent aliquots that were too large or due to a slow rate of dissolution. […] If complete dissolution was achieved as a result of only one aliquot addition, the solubility is expressed as “greater than.”

Series [4] in a line: Slurry experiments (form stability). The following applies: for XRPD: room temp. On the procedure:
Solutions were prepared by adding enough solids to a given solvent so that excess solids were present. The mixture was then agitated in a sealed vial at either ambient or an elevated temperature. After a given amount of time, the solids were isolated for analysis.
The formation and stability of solid forms of the sodium salt of Compound I was further evaluated via slurry experiments. The slurries were formed by combining Compound I sodium Pattern A and a solvent, and allowing the slurry to equilibrate at room temperature. If a free flowing slurry was not achieved, an additional amount of the respective solvent was added before the room temperature equilibration step. All slurries were isolated via centrifuge filtration after five days and twelve days of equilibration. The solids were analyzed by XRPD to check for pattern conversion (Table 13).

Series [5] can be described thus: Stability at elevated temperatures (XRPD, HPLC). On the procedure: The stability of Compound I sodium Patterns A, C, and D and Form B, at about 60° C. was evaluated. These forms were weighed into vials covered with a Kimwipe tissue and stored in an oven at 60° C. and ambient pressure. After three days and ten days of exposure, the solids were analyzed by XRPD to check for form conversion. […].

Series [6] can be described thus: Solubility of Compound I sodium salt forms in solvents and binary solvent systems. The following applies: thermodynamic from solid, 60° C., read-out: Solubility. On the procedure:
as §1

Series [7] can be described thus: Dynamic vapor sorption/desorption (DVS). On the procedure:
Moisture sorption/desorption data were collected on a VTI SGA-100 Vapor Sorption Analyzer. NaCl and PVP were used as calibration standards. Samples were not dried prior to analysis. Sorption and desorption data were collected over a range from 5% to 95% RH at 10% RH increments under a nitrogen purge. The equilibrium criterion used for analysis was less than 0.0100% weight change in 5 minutes with a maximum equilibration time of 3 hours. Data were not corrected for the initial moisture content of the samples.

[8] abbreviates: listed as Ethylenediamine B + A.

SMILES strings stand for the structures.

The source of these data is patent publication US11173156B2, “Solid forms of a kynurenine-3-monooxygenase inhibitor” (CHDI Foundation, Inc., priority 2019, dated 2021).

A word on the solubility: it is the concentration that dissolves in the medium under given conditions. In the case of `O=C(O)c1cc(-c2ccc(OC3CC3)c(Cl)c2)ncn1` [Compound I ethylenediamine Materials A+B, 6-(3-chloro-4-cyclopropoxyphenyl)pyrimidine-4-carboxylic acid], the “Result (XRPD of remaining solids)” value in series [1] (listed as Compound I ethylenediamine A+B) was “disproportionated”; in series [1] (setting [8]), “Ethylenediamine B + Free Acid C”. In addition, in series [2], the “Observation (deliquescence)” value was “no deliquescence”. In addition, in series [3], the “aqueous solubility (in words)” value was “suitable aqueous solubility”. For the same compound, in series [3] (setting [8]), the solubility was below 10000 µg/mL.
Take `O=C(O)c1cc(-c2ccc(OC3CC3)c(Cl)c2)ncn1` [Compound I benzathine Form A, 6-(3-chloro-4-cyclopropoxyphenyl)pyrimidine-4-carboxylic acid]: the “Result (XRPD of remaining solids)” value in series [1] is “remained unchanged by XRPD”; in series [1] (listed as Benzathine A), “Benzathine A”. Moreover, in series [2] (listed as Benzathine A), the “Result (XRPD after exposure)” value was “Benzathine A”. For the same compound, the “Observation (deliquescence)” value in series [2] was “no deliquescence”. For the same compound, the “aqueous solubility (in words)” value in series [3] was “poor low aqueous solubility”. The solubility in series [3] (listed as Benzathine A) is below 7000 µg/mL.
Turning to `O=C(O)c1cc(-c2ccc(OC3CC3)c(Cl)c2)ncn1` [Compound I sodium Pattern A, 6-(3-chloro-4-cyclopropoxyphenyl)pyrimidine-4-carboxylic acid], the XRPD result in series [4] (ACN slurry, 12 days, dry) is recorded as “Amorphous”; in series [4] (ACN slurry, 12 days, wet), “Amorphous”; in series [4] (DCM slurry, 12 days, dry), “Low”; in series [4] (DCM slurry, 12 days, wet) it was “Low”; in series [4] (EtOAc slurry, 5 days), “Amorphous”; in series [4] (EtOH slurry, 5 days) it was “Amorphous”. In addition, the XRPD entry is on record as “Amorphous” in series [4] (THF slurry, 5 days); “Amorphous” in series [4] (THF slurry, 12 days, dry); “Amorphous” in series [4] (THF slurry, 12 days, wet). Also, the “form conversion in slurry / trituration” value in series [4] (acetone and/or isopropanol (trituration, single form or competitive slurry)) was “converted to Compound I sodium Form B”; in series [4] (solvent systems with high water activity), “rehydrated to Compound I Form E”. In addition, the “relative stability of the form (in words)” value in series [4] (at the conditions evaluated) is “metastable relative to Compound I sodium Form B”. In series [4] (water, toluene, DCM and MEK), the “stability in slurry (in words)” value is recorded as “stable as a single form for about five days”. The “chemical and physical form changes after storing at elevated temperature” value in series [5] (about 60° C.) was “No chemical and physical form changes were observed”. This compound also displayed an HPLC in series [5] (after storage at 60 ° C. (time point not given)) above 99.9 % AUC. Besides, the solubility in series [6] (organic solvent or mixture, 2-MeTHF) is below 1100 µg/mL; in series [6] (organic solvent or mixture, ACN) it was below 1200 µg/mL; in series [6] (organic solvent or mixture, Acetone), below 1300 µg/mL; in series [6] (organic solvent or mixture, BuOH), below 1200 µg/mL; in series [6] (organic solvent or mixture, DCM), below 1300 µg/mL; in series [6] (organic solvent or mixture, DMF), 5800 to 7700 µg/mL. The solubility in series [6] (organic solvent or mixture, DMSO) is 7500 to 11300 µg/mL; in series [6] (organic solvent or mixture, EtOAc) it was below 1100 µg/mL; in series [6] (organic solvent or mixture, EtOH), below 1300 µg/mL; in series [6] (organic solvent or mixture, Heptane), below 1200 µg/mL; in series [6] (organic solvent or mixture, IPA), below 1100 µg/mL; in series [6] (organic solvent or mixture, IPAc) it was below 1100 µg/mL. Besides, the solubility was below 1300 µg/mL in series [6] (organic solvent or mixture, MEK); below 1200 µg/mL in series [6] (organic solvent or mixture, MIBK); below 1100 µg/mL in series [6] (organic solvent or mixture, MTBE); 5000 to 6700 µg/mL in series [6] (organic solvent or mixture, MeOH); 10300 to 20500 µg/mL in series [6] (organic solvent or mixture, NMP); below 1300 µg/mL in series [6] (organic solvent or mixture, THF). Also, the solubility in series [6] (organic solvent or mixture, Toluene) was below 1100 µg/mL; in series [6] (organic solvent or mixture, c-Hexane) it was below 1200 µg/mL; in series [6] (Water), 10000 to 20000 µg/mL. The “hygroscopicity by DVS analysis (in words)” value in series [7] is recorded as “hygroscopic”. The “deliquescence (in words)” value in series [7] (DVS analysis) is “did not show any indications of deliquescence”. For the same compound, the “material recovered from the DVS analysis compared with starting material by XRPD” value in series [7] (after DVS) is “substantially the same as the starting material”. Besides, the results for the DVS weight gain entry in series [7] (at 60% RH) and in series [7] (at 90% RH) were “about 4.9%” and “about 21.2%”, respectively.
Consider `O=C(O)c1cc(-c2ccc(OC3CC3)c(Cl)c2)ncn1` [Compound I potassium Material A, 6-(3-chloro-4-cyclopropoxyphenyl)pyrimidine-4-carboxylic acid], for which the “Result (XRPD of remaining solids)” value in series [1] is “converted to a new material”; in series [1] (listed as Potassium A), “broad reflections”. In series [2], the “Observation (deliquescence)” value is recorded as “no deliquescence”. In series [3], the “aqueous solubility (in words)” value is reported as “suitable aqueous solubility”. Further, in series [3] (listed as Potassium A), the solubility is below 4000 µg/mL.
